Source: patent US20140235705A1, “FORMULATIONS OF THIOPHENE COMPOUNDS” (Vertex Pharmaceuticals Incorporated, priority 2011, published 2014)
Structures can show the parent of a compound that is named as a salt.

test: Solubility (Cs) of Compound (1) solid forms in FESSIF; type: physicochemical; details: FESSIF (fed state simulated intestinal fluid)
Source text: Simulated human intestinal media suitable for the invention can be found in the art, for example, those described in Jantratid, et al., “Dissolution Media Simulating Conditions in the Proximal Human Gastrointestinal Tract: An Update,” Pharmaceutical Research, 25(7), 2008. In one embodiment, a human fed state simulated intestinal fluid ([…]) is employed in the invention. A typical […] includes sodium hydroxide, citric acid, sodium chloride, sodium taurocholate, and lecithin (L-Alpha-Phosphatidyl Choline). A specific example is described in Example 9 below. […] [table]

solubility of Compound (1) in FESSIF | Compound
825 µg/mL | CC(C)(C)C#Cc1cc(N(C(=O)[C@H]2CC[C@H](C)CC2)[C@H]2CC[C@H](O)CC2)c(C(=O)O)s1 [Form M of Compound (1), 5-(3,3-Dimethyl-but-1-ynyl)-3-[(trans-4-hydroxy-cyclohexyl)-(trans-4-methyl-cyclohexanecarbonyl)-amino]-thiophene-2-carboxylic acid]
2600 µg/mL | CC(C)(C)C#Cc1cc(N(C(=O)[C@H]2CC[C@H](C)CC2)[C@H]2CC[C@H](O)CC2)c(C(=O)O)s1 [tromethamine salt of Compound (1), 5-(3,3-Dimethyl-but-1-ynyl)-3-[(trans-4-hydroxy-cyclohexyl)-(trans-4-methyl-cyclohexanecarbonyl)-amino]-thiophene-2-carboxylic acid]
900 µg/mL | CC(C)(C)C#Cc1cc(N(C(=O)[C@H]2CC[C@H](C)CC2)[C@H]2CC[C@H](O)CC2)c(C(=O)O)s1 [Form A of Compound (1), 5-(3,3-Dimethyl-but-1-ynyl)-3-[(trans-4-hydroxy-cyclohexyl)-(trans-4-methyl-cyclohexanecarbonyl)-amino]-thiophene-2-carboxylic acid]
